From ChEMBL document CHEMBL1139143, “Synthesis and structure-activity relationships of N-substituted spiropiperidines as nociceptin receptor ligands” (Bioorg Med Chem Lett, 2007)

What was measured:
Type in all cases: ADME, organism-based
[1] = AUC (0 to 6 hrs) in rat; set-up: time < 6 hr; conditions: plasma
[2] = Cmax in rat after 4 hrs; conditions: in vivo
[3] = Drug level in rat after 6 hrs; conditions: in vivo, read-out: Drug uptake

CC1(C)CCC(N2CCC3(CC2)C(=O)NCN3c2ccccc2)c2cc(Cl)c(Cl)cc21 (stereo not drawn)
AUC(0-t) at 6 h [1]: 2.11 µM·h | Cmax [2]: 518 nM | concentration at 6 h [3]: 467 nM
